Assay results from patent US20260250318A1, “COMPOSITIONS AND METHODS FOR CROSSING THE BLOOD BRAIN BARRIER” (VOYAGER THERAPEUTICS, INC., priority 2022, published 2026).

What was measured:
Conditions in all cases: synthetic library passage 3, intravenous, relative to wild-type AAV9
[1] = system: brain, spinal cord, and DRG of the NHPs; assay: NGS fold enrichment of synthetic library (passage 3) in NHPs, first cross-species screen; type: in vivo, cynomolgus macaques (Macaca fascicularis)
In short: (§1)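 Fold enrichment versus wild-type AAV9 was derived by NGS of RT-PCR-amplified RNA from nervous tissue, collected e.g. 28 days after IV dosing […]. The library (passage 3) was given to two NHPs aged 2-4 years and to 6-8-week BALB/c and C57Bl/6 mice (n=3 each).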

brain [2] = assay: NGS fold enrichment of synthetic library (passage 3) in C57Bl/6 mice, first cross-species screen; type: in vivo
In short: as §1

brain [3] = assay: NGS fold enrichment of synthetic library (passage 3) in BALB/c mice, first cross-species screen; type: in vivo
In short: as §1

[4] = RNA from spinal cord of NHPs, NGS
[5] = RNA from brain of C57Bl/6 mice, NGS
[6] = RNA from brain of BALB/c mice, NGS

Sequence: GERHTVLSGQNQQT
- Fold enrichment over AAV9 in the brain of NHPs ([1]; RNA NGS, brain of NHPs): 3.289 fold
- Fold enrichment over AAV9 in the spinal cord of NHPs ([1]; RNA NGS, spinal cord of NHPs): 3.008 fold
- Fold enrichment over AAV9 in the brain of Mice (C57Bl/6) (brain [2]; RNA NGS, brain of C57Bl/6 mice): 1.027 fold
- Fold enrichment over AAV9 in the brain of Mice (BALB/c) (brain [3]; RNA NGS, brain of BALB/c mice): 0.607 fold

Sequence: GSGQNQQTGQHMRV
- Fold enrichment over AAV9 in the brain of NHPs ([1]; RNA from brain of NHPs, NGS): 1.286 fold
- Fold enrichment over AAV9 in the spinal cord of NHPs [1, 4]: 4.161 fold
- Fold enrichment over AAV9 in the brain of Mice (C57Bl/6) (brain [2]; [5]): 1.839 fold
- Fold enrichment over AAV9 in the brain of Mice (BALB/c) (brain [3]; [6]): 1.635 fold

Sequence: GEVSRVLSGQNQQT
- Fold enrichment over AAV9 in the brain of NHPs ([1]; RNA from brain of NHPs, NGS): 1.318 fold
- Fold enrichment over AAV9 in the spinal cord of NHPs [1, 4]: 0.437 fold
- Fold enrichment over AAV9 in the brain of Mice (C57Bl/6) (brain [2]; [5]): 1.150 fold
- Fold enrichment over AAV9 in the brain of Mice (BALB/c) (brain [3]; [6]): 0.440 fold

Sequence: GSGQNQQTAHAFNI
- Fold enrichment over AAV9 in the brain of NHPs ([1]; RNA from brain of NHPs, NGS): 1.132 fold
- Fold enrichment over AAV9 in the spinal cord of NHPs [1, 4]: 3.404 fold
- Fold enrichment over AAV9 in the brain of Mice (C57Bl/6) (brain [2]; [5]): 0.699 fold
- Fold enrichment over AAV9 in the brain of Mice (BALB/c) (brain [3]; [6]): 0.729 fold

Sequence: GSLHAGLSGQNQQT
- Fold enrichment over AAV9 in the brain of NHPs ([1]; RNA from brain of NHPs, NGS): 1.408 fold
- Fold enrichment over AAV9 in the spinal cord of NHPs [1, 4]: 1.739 fold
- Fold enrichment over AAV9 in the brain of Mice (C57Bl/6) (brain [2]; [5]): 1.286 fold
- Fold enrichment over AAV9 in the brain of Mice (BALB/c) (brain [3]; [6]): 0.936 fold

Sequence: GHAGSTGSGQNQQT
- Fold enrichment over AAV9 in the brain of NHPs ([1]; RNA from brain of NHPs, NGS): 1.352 fold
- Fold enrichment over AAV9 in the spinal cord of NHPs [1, 4]: 2.829 fold
- Fold enrichment over AAV9 in the brain of Mice (C57Bl/6) (brain [2]; [5]): 1.332 fold
- Fold enrichment over AAV9 in the brain of Mice (BALB/c) (brain [3]; [6]): 1.233 fold

Sequence: GSGQNQQTVPSNLV
- Fold enrichment over AAV9 in the brain of NHPs ([1]; RNA from brain of NHPs, NGS): 1.201 fold
- Fold enrichment over AAV9 in the spinal cord of NHPs [1, 4]: 0.791 fold
- Fold enrichment over AAV9 in the brain of Mice (C57Bl/6) (brain [2]; [5]): 0.434 fold
- Fold enrichment over AAV9 in the brain of Mice (BALB/c) (brain [3]; [6]): 0.281 fold

Sequence: GSGQNQRTMVATQT
- Fold enrichment over AAV9 in the brain of NHPs ([1]; RNA from brain of NHPs, NGS): 1.130 fold
- Fold enrichment over AAV9 in the spinal cord of NHPs [1, 4]: 1.122 fold
- Fold enrichment over AAV9 in the brain of Mice (C57Bl/6) (brain [2]; [5]): 0.649 fold
- Fold enrichment over AAV9 in the brain of Mice (BALB/c) (brain [3]; [6]): 0.554 fold

Sequence: GSGIPSVKFQNQQT
- Fold enrichment over AAV9 in the brain of NHPs ([1]; RNA from brain of NHPs, NGS): 1.281 fold
- Fold enrichment over AAV9 in the spinal cord of NHPs [1, 4]: 0.061 fold
- Fold enrichment over AAV9 in the brain of Mice (C57Bl/6) (brain [2]; [5]): 0.364 fold
- Fold enrichment over AAV9 in the brain of Mice (BALB/c) (brain [3]; [6]): 0.561 fold

Sequence: GTEQTRQSGQNQQT
- Fold enrichment over AAV9 in the brain of NHPs ([1]; RNA from brain of NHPs, NGS): 1.188 fold
- Fold enrichment over AAV9 in the spinal cord of NHPs [1, 4]: 0.132 fold
- Fold enrichment over AAV9 in the brain of Mice (C57Bl/6) (brain [2]; [5]): 0.756 fold
- Fold enrichment over AAV9 in the brain of Mice (BALB/c) (brain [3]; [6]): 0.756 fold

Sequence: GRGQIYSTGGNQQT
- Fold enrichment over AAV9 in the brain of NHPs ([1]; RNA NGS, brain of NHPs): 2.210 fold
- Fold enrichment over AAV9 in the spinal cord of NHPs ([1]; RNA NGS, spinal cord of NHPs): 11.629 fold
- Fold enrichment over AAV9 in the brain of Mice (C57Bl/6) (brain [2]; RNA NGS, brain of C57Bl/6 mice): 1.329 fold
- Fold enrichment over AAV9 in the brain of Mice (BALB/c) (brain [3]; RNA NGS, brain of BALB/c mice): 0.743 fold

Sequence: GSGQNQQLSRDAST
- Fold enrichment over AAV9 in the brain of NHPs ([1]; RNA NGS, brain of NHPs): 1.754 fold
- Fold enrichment over AAV9 in the spinal cord of NHPs ([1]; RNA NGS, spinal cord of NHPs): 3.716 fold
- Fold enrichment over AAV9 in the brain of Mice (C57Bl/6) (brain [2]; RNA NGS, brain of C57Bl/6 mice): 1.877 fold
- Fold enrichment over AAV9 in the brain of Mice (BALB/c) (brain [3]; RNA NGS, brain of BALB/c mice): 0.611 fold

Sequence: GSFSMHTHGQNQQT
- Fold enrichment over AAV9 in the brain of NHPs ([1]; RNA NGS, brain of NHPs): 2.535 fold
- Fold enrichment over AAV9 in the spinal cord of NHPs ([1]; RNA NGS, spinal cord of NHPs): 0.118 fold
- Fold enrichment over AAV9 in the brain of Mice (C57Bl/6) (brain [2]; RNA NGS, brain of C57Bl/6 mice): 1.027 fold
- Fold enrichment over AAV9 in the brain of Mice (BALB/c) (brain [3]; RNA NGS, brain of BALB/c mice): 0.693 fold

Sequence: GSVLHSHAAQNQQT
- Fold enrichment over AAV9 in the brain of NHPs ([1]; RNA NGS, brain of NHPs): 4.150 fold
- Fold enrichment over AAV9 in the spinal cord of NHPs ([1]; RNA NGS, spinal cord of NHPs): 6.448 fold
- Fold enrichment over AAV9 in the brain of Mice (C57Bl/6) (brain [2]; RNA NGS, brain of C57Bl/6 mice): 0.675 fold
- Fold enrichment over AAV9 in the brain of Mice (BALB/c) (brain [3]; RNA NGS, brain of BALB/c mice): 0.423 fold

Sequence: GTTAHQPSGQNQQT
- Fold enrichment over AAV9 in the brain of NHPs ([1]; RNA from brain of NHPs, NGS): 1.138 fold
- Fold enrichment over AAV9 in the spinal cord of NHPs [1, 4]: 0.211 fold
- Fold enrichment over AAV9 in the brain of Mice (C57Bl/6) (brain [2]; [5]): 0.726 fold
- Fold enrichment over AAV9 in the brain of Mice (BALB/c) (brain [3]; [6]): 0.275 fold

Sequence: GSGQNQQWDSRRQT
- Fold enrichment over AAV9 in the brain of NHPs ([1]; RNA from brain of NHPs, NGS): 1.321 fold
- Fold enrichment over AAV9 in the spinal cord of NHPs [1, 4]: 0.531 fold
- Fold enrichment over AAV9 in the brain of Mice (C57Bl/6) (brain [2]; [5]): 1.059 fold
- Fold enrichment over AAV9 in the brain of Mice (BALB/c) (brain [3]; [6]): 0.825 fold
